This is an account of results in article PMC9891357 (Molecular Cancer Therapeutics, 2022).

In one assay the target is USP12 (Homo sapiens, UniProt O75317). Nature of the assay: Ubiquigent DUBprofiler biochemical panel, […] inhibition at […].
For the next assay, the target named is USP46 (Homo sapiens, UniProt P62068). Described as above.

SMILES strings stand for the structures.

Chain of USP12 (O75317 whole entry): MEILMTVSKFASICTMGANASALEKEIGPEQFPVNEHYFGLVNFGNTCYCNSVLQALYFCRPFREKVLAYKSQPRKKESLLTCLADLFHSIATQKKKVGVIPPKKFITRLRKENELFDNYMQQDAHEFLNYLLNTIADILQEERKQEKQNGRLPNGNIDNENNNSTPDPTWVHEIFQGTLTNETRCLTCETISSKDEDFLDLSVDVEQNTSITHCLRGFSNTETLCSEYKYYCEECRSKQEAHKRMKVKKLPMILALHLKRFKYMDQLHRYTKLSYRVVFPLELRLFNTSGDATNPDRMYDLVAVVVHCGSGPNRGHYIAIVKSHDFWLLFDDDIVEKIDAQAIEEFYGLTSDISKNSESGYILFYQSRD
Chain of USP12 (Q8TAF3 whole entry partner): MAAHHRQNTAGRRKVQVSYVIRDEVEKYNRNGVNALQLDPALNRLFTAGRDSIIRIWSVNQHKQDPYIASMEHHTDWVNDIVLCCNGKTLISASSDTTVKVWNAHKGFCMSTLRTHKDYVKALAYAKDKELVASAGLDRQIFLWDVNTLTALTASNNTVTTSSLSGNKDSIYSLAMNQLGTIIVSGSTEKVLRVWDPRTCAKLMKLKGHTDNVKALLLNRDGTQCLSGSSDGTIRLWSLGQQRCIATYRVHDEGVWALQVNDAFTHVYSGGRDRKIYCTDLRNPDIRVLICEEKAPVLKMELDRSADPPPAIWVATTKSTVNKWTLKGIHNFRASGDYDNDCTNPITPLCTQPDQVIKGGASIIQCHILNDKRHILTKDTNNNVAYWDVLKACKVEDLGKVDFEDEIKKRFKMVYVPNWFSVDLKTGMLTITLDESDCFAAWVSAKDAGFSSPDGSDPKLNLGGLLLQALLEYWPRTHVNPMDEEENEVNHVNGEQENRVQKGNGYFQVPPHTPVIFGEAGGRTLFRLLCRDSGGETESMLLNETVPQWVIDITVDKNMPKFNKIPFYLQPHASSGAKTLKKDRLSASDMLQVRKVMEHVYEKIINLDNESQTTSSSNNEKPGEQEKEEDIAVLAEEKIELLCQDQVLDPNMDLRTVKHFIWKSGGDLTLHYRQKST
Chain of USP46 (P62068 whole entry): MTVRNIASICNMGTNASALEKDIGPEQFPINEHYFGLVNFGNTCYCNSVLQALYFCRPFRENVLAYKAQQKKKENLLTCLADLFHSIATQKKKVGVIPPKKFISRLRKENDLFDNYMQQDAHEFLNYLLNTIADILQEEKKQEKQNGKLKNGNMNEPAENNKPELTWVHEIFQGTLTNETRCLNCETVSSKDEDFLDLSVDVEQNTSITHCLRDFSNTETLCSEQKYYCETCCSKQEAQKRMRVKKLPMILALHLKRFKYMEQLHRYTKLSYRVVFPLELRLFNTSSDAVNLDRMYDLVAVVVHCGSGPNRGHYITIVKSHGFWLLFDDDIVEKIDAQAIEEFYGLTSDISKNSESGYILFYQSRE
Chain of USP46 (Q8TAF3 whole entry partner): as the sequence (Q8TAF3 whole entry partner) above

For `CC(C)c1ccccc1-c1ncc2[nH]c(=O)n(Cc3ccc(-c4nc(C(F)(F)F)cn4C)cc3)c2n1` [I-138, 2-(2-isopropylphenyl)-9-(4-(1-methyl-4-(trifluoromethyl)-1H-imidazol-2-yl)benzyl)-7,9-dihydro-8H-purin-8-one], the IC50 at USP12 and on USP46 was ~ 10 μmol/L in each case.
